Test results reported in patent US20160060234A1, “CYSTEINE DERIVATIVE” (AJINOMOTO CO., INC., priority 2010, published 2016).
pIC50: −log10 of the molar value. Counter-ions that a name gives are not always drawn. Blank lines part the entries; values can stand above or below the molecule they belong to.

Legend:
[1] = Time-course stability test at 70° C. of cis form-trans form mixture (Experimental Example 2); format: physicochemical; settings: 5 days; for residual ratio (%) at pH 4: 25 mM phosphate buffer pH 4, 70° C.; for residual ratio (%) at pH 4 / residual ratio (%) at pH 5 / residual ratio (%) at pH 6 / residual ratio (%) at pH 7: HPLC area vs day 0; for preservation stability (in words, from Table 1): 25 mM phosphate buffer pH 4-7, 70° C.; for residual ratio (%) at pH 5: 25 mM phosphate buffer pH 5, 70° C.; for residual ratio (%) at pH 6: 25 mM phosphate buffer pH 6, 70° C.; for residual ratio (%) at pH 7: 25 mM phosphate buffer pH 7, 70° C.
Protocol: A time-course stability test was performed using about 1:1 mixture (20 mg/20 ml) of cis form-trans form of N-Ac-CP2Et obtained in Synthetic Example 7 in a 25 mM phosphate buffer at pH 4, 5, 6, and 7 and 70° C. in the same manner as in Examples Experimental Example 1. The test was performed for 5 days. As an index of a time-course stability test at 70° C., the area value of a target substance 5 days after start of the stability test relative to the area value of the target substance on day 0 after start of the stability test was calculated in % on an HPLC chart and used as a residual ratio.
Detector: ultraviolet absorption spectrophotometer (measurement wavelength; 210 nm) Column: Inertsil ODS-3 (High Pressure type, GL Sciences) (particle size 3 μm, inner diameter 4.6 mm, length 250 mm) eluent: A: 0.05M KH2PO4 (adjusted to pH2 with 85% H3PO4), B: MeOH gradient conditions: 0-5 minute: A=100, −25 minute: A:B=50:50, −35 minute: A:B=50:50, −40 minute: A=100, −45 minute: A=100 flow rate: 0.8 mL/minute column temperature: 30° C. sample concentration: 25-50 mg/dL injection volume: 20 μL retention time (minute): N-Ac-CP2Et (cis form): 31.9, N-Ac-CP2Et (trans form): 33.9

[2] = Time-course stability test at 70° C. (Experimental Example 1); format: physicochemical; settings: 25 mM phosphate buffer, pH 4, 5, 6 and 7, 70° C., 4 days, HPLC
Protocol: A time-course stability test was performed using N-Ac-CP2Et obtained in Synthetic Example 1 and N-Ac-CP obtained in Synthetic Example 13 in a 25 mM phosphate buffer at pH 4, 5, 6, and 7 and 70° C. The test was performed for 4 days. As comparison targets, CP obtained in Reference Example 1, and CP2Et obtained in Reference Example 2 were used. For the time-course stability test, HPLC; (pump) HITACHI L-7100, (Autosampler) HITACHI L-2200, and (detector) HITACHI L-4000 were used.
As an index of a time-course stability test at 70° C., the area value of a target substance after time course changes relative to the area value of the target substance on day 0 after start of the stability test was calculated in % on an HPLC chart and used as a residual ratio.
detector: ultraviolet absorption spectrophotometer (measurement wavelength; 210 nm) column: Inertsil ODS (GL Sciences) (particle size 3 μm, inner diameter 4.6 mm, length 250 mm) eluent: 4 mL/L aqueous phosphoric acid solution:methanol=3:1 (v/v) flow rate: 0.8 mL/minute column temperature: 50° C. sample concentration: 100 mg/dL injection volume: 20 μL retention time (minute): CP: 4.6, 4.8 (diastereomer mixture), N-Ac-CP: 8.0 […]

B16 melanoma = experiment: Eumelanin production suppression test; format: cell-based; settings: Mus musculus, 72 h, 3 days culture, absorbance of medium at 450 nm, control = 100%, read-out: 50% melanin production suppressing concentration
Protocol: B16 melanoma was cultured in DMEM (Dulbecco's Modified Eagle Medium) (high glucose, containing 10% serum). Confluent cells were detached with trypsin, and plated on a 96 well plate. After cell adhesion to the plate the next day, the medium was changed to DMEM added with each evaluation sample (control (no sample addition), cysteine derivatives of each Synthetic Example) at a predetermined evaluation concentration (diluted from 10 mM according to sample), and the cells were cultured for 3 days. The 96 well plate was shaken for 5 minutes in a plateshaker, and the absorbance of the medium at 450 nm was measured by a microplatereader. The absorbance after 3 days from the addition of a predetermined concentration of each sample was shown in relative percentage to the measured value (absorbance) of the control (no sample addition) as 100%, and the concentration necessary for suppressing eumelanin production in each sample by 50% was calculated as 50% melanin production suppressing concentration relative to the amount of eumelanin in the control as 100%.
The microplatereader used in this eumelanin production suppression test was Benchmark microplatereader, manufactured by BIORAD.

melting point: 138 to 141 °C
Compound: CCOC(=O)C1(C)SCC(C(=O)O)N1C(C)=O (centres unmarked) (as salt: salt) [Synthetic Example 1, N-acetyl-2-methylthiazolidine-2,4-dicarboxylic acid 2-ethyl ester]

residual ratio (%) at pH 4 [1]: 69.9%
preservation stability (in words, from Table 1) [1]: good preservation stability
residual ratio (%) at pH 5 [1]: 93.5%
residual ratio (%) at pH 6 [1]: 96.9%
residual ratio (%) at pH 7 [1]: >99.9%
Compound: CCOC(=O)C1(C)SCC(C(=O)O)N1C(C)=O (stereo not drawn) [N-Ac-CP2Et (cis form), N-acetyl-2-methylthiazolidine-2,4-dicarboxylic acid 2-ethyl ester]

residual ratio (%) at pH 4 [1]: 95.8%
preservation stability (in words, from Table 1) [1]: good preservation stability
residual ratio (%) at pH 5 [1]: 99.8%
residual ratio (%) at pH 6 [1]: >99.9%
residual ratio (%) at pH 7 [1]: >99.9%
Compound: CCOC(=O)C1(C)SCC(C(=O)O)N1C(C)=O (stereo not drawn) [N-Ac-CP2Et (trans form), N-acetyl-2-methylthiazolidine-2,4-dicarboxylic acid 2-ethyl ester]

pIC50 (B16 melanoma): 2.34
Compound: CCOC(=O)C1(C)SCC(C(=O)O)N1C(C)=O (centres unmarked) [Synthetic Example 1, N-acetyl-2-methylthiazolidine-2,4-dicarboxylic acid 2-ethyl ester]
preservation stability (residual ratio, FIGS. 1 to 4) [2]: preservation stability better than CP and CP2Et

pIC50 (B16 melanoma): 2.26
Compound: CC(=O)N1C(C(=O)O)CSC1(C)C(=O)O (centres unmarked) [Synthetic Example 13, N-acetyl-2-methylthiazolidine-2,4-dicarboxylic acid]
preservation stability (residual ratio, FIGS. 1 to 4) [2]: preservation stability better than CP and CP2Et

pIC50 (B16 melanoma): 2.58
Compound: CCOC(=O)C1CSC(C)(C(=O)OCC)N1C(C)=O (centres unmarked) [Synthetic Example 19, N-acetyl-2-methylthiazolidine-2,4-dicarboxylic acid 2,4-diethyl ester]

pIC50 (B16 melanoma): 2.85
Compound: CCOC(=O)C1(C)SCC(C(=O)OC(C)C)N1C(C)=O (centres unmarked) [Synthetic Example 20, N-acetyl-2-methylthiazolidine-2,4-dicarboxylic acid 2-ethyl 4-isopropyl ester]
